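Five concentrations, 48 hours, 96-well plates. Abbreviation: GI50, concentration required for 50% inhibition of growth. TGI: concentration producing complete growth inhibition.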
What was measured:
Experiment in all cases: inhibition of tumour cell growth, NCI panel, 48 h
786-0 renal = system: 786-0 renal
A549 NSCLC = system: A549 NSCLC
ACHN renal = system: ACHN renal
BT-549 breast = system: BT-549 breast
CAKI-1 renal = system: CAKI-1 renal
CCRF-CEM leukemia = system: CCRF-CEM leukemia
COLO 205 colon = system: COLO 205 colon
DU-145 prostate = system: DU-145 prostate
EKVX NSCLC = system: EKVX NSCLC
HCC-2998 colon = system: HCC-2998 colon
HCT-116 colon = system: HCT-116 colon
HCT-15 colon = system: HCT-15 colon
HL-60(TB) leukemia = system: HL-60(TB) leukemia
HOP-62 NSCLC = system: HOP-62 NSCLC
HOP-92 NSCLC = system: HOP-92 NSCLC
HS 578T breast = system: HS 578T breast
HT29 colon = system: HT29 colon
IGROV1 ovarian = system: IGROV1 ovarian
K-562 leukemia = system: K-562 leukemia
KM12 colon = system: KM12 colon
LOX IMVI melanoma = system: LOX IMVI melanoma
M14 melanoma = system: M14 melanoma
MALME-3M melanoma = system: MALME-3M melanoma
MCF7 breast = system: MCF7 breast
MDA-MB-231 breast = system: MDA-MB-231 breast
MDA-MB-435 = system: MDA-MB-435
MOLT-4 leukemia = system: MOLT-4 leukemia
NCI-H226 lung = system: NCI-H226 lung
NCI-H23 lung = system: NCI-H23 lung
NCI-H460 lung = system: NCI-H460 lung
NCI-H522 lung = system: NCI-H522 lung
NCI/ADR-RES ovarian = system: NCI/ADR-RES ovarian
OVCAR-3 ovarian = system: OVCAR-3 ovarian
OVCAR-4 ovarian = system: OVCAR-4 ovarian
OVCAR-5 ovarian = system: OVCAR-5 ovarian
OVCAR-8 ovarian = system: OVCAR-8 ovarian
PC-3 prostate = system: PC-3 prostate
RPMI-8226 leukemia = system: RPMI-8226 leukemia
RXF 393 renal = system: RXF 393 renal
SF-268 CNS = system: SF-268 CNS
SF-295 CNS = system: SF-295 CNS
SF-539 CNS = system: SF-539 CNS
SK-MEL-28 melanoma = system: SK-MEL-28 melanoma
SK-MEL-5 melanoma = system: SK-MEL-5 melanoma
SK-OV-3 ovarian = system: SK-OV-3 ovarian
SN12C renal = system: SN12C renal
SNB-19 CNS = system: SNB-19 CNS
SNB-75 CNS = system: SNB-75 CNS
SR leukemia = system: SR leukemia
SW-620 colon = system: SW-620 colon
T-47D breast = system: T-47D breast
TK-10 renal = system: TK-10 renal
U251 CNS = system: U251 CNS
UACC-257 melanoma = system: UACC-257 melanoma
UACC-62 melanoma = system: UACC-62 melanoma
UO-31 renal = system: UO-31 renal

## CCN(CC)CCOc1nc2cc(OC)c(OC)cc2c2c1-c1ccc(OC)cc1C2=O
786-0 renal
  GI50: 15.7 µM
  TGI: 30.3 µM
A549 NSCLC
  GI50: 1.48 µM
  TGI: 2.87 µM
ACHN renal
  GI50: 11.5 µM
  TGI: 23.8 µM
BT-549 breast
  GI50: 15.7 µM
  TGI: 29.5 µM
CAKI-1 renal
  GI50: 10.3 µM
  TGI: 22.5 µM
CCRF-CEM leukemia
  GI50: 0.54 µM
  TGI: 12.3 µM
COLO 205 colon
  GI50: 11.5 µM
  TGI: 24.6 µM
DU-145 prostate
  GI50: 5.56 µM
  TGI: 18.3 µM
EKVX NSCLC
  GI50: 14.2 µM
  TGI: 28.1 µM
HCC-2998 colon
  GI50: 14.3 µM
  TGI: 27.6 µM
HCT-116 colon
  GI50: 1.35 µM
  TGI: 2.63 µM
HCT-15 colon
  GI50: 1.79 µM
  TGI: 3.78 µM
HL-60(TB) leukemia
  GI50: 13.4 µM
  TGI: 34.6 µM
HOP-62 NSCLC
  GI50: 10 µM
  TGI: 22.2 µM
HOP-92 NSCLC
  GI50: 15.7 µM
  TGI: 32.1 µM
HS 578T breast
  GI50: 20.4 µM
  TGI: 44.9 µM
HT29 colon
  GI50: 1.67 µM
  TGI: 3.11 µM
IGROV1 ovarian
  GI50: 5.65 µM
  TGI: 20.6 µM
K-562 leukemia
  GI50: 2.06 µM
  TGI: 5.01 µM
KM12 colon
  GI50: 1.51 µM
  TGI: 2.87 µM
LOX IMVI melanoma
  GI50: 1.27 µM
  TGI: 2.7 µM
M14 melanoma
  GI50: 11.7 µM
  TGI: 24 µM
MALME-3M melanoma
  GI50: 21.1 µM
  TGI: 36.9 µM
MCF7 breast
  GI50: 0.697 µM
  TGI: 17.3 µM
MDA-MB-231 breast
  GI50: 13 µM
  TGI: 26.9 µM
MDA-MB-435
  GI50: 13.3 µM
  TGI: 26 µM
MOLT-4 leukemia
  GI50: 1.91 µM
  TGI: 17.6 µM
NCI-H226 lung
  GI50: 13.6 µM
  TGI: 35.1 µM
NCI-H23 lung
  GI50: 12.5 µM
  TGI: 27.9 µM
NCI-H460 lung
  GI50: 1.22 µM
  TGI: 2.72 µM
NCI-H522 lung
  GI50: 0.312 µM
  TGI: 18.7 µM
NCI/ADR-RES ovarian
  GI50: 13.2 µM
  TGI: 29.8 µM
OVCAR-3 ovarian
  GI50: 11.7 µM
  TGI: 24 µM
OVCAR-4 ovarian
  GI50: 13.9 µM
  TGI: 33.5 µM
OVCAR-5 ovarian
  GI50: 21.2 µM
  TGI: 36.4 µM
OVCAR-8 ovarian
  GI50: 8.62 µM
  TGI: 21.4 µM
PC-3 prostate
  GI50: 12.3 µM
  TGI: 26.8 µM
RPMI-8226 leukemia
  GI50: 3.26 µM
  TGI: 19.6 µM
RXF 393 renal
  GI50: 12.8 µM
  TGI: 25.9 µM
SF-268 CNS
  GI50: 4.93 µM
  TGI: 21.9 µM
SF-295 CNS
  GI50: 0.117 µM
  TGI: 0.597 µM
SF-539 CNS
  GI50: 8.62 µM
  TGI: 23.6 µM
SK-MEL-28 melanoma
  GI50: 21.5 µM
  TGI: 36.4 µM
SK-MEL-5 melanoma
  GI50: 16.1 µM
  TGI: 30.2 µM
SK-OV-3 ovarian
  GI50: 13.2 µM
  TGI: 26 µM
SN12C renal
  GI50: 5.29 µM
  TGI: 21.1 µM
SNB-19 CNS
  GI50: 10.5 µM
  TGI: 23.7 µM
SNB-75 CNS
  GI50: 16.8 µM
  TGI: 33.1 µM
SR leukemia
  GI50: 0.583 µM
  TGI: 3.4 µM
SW-620 colon
  GI50: 1.21 µM
  TGI: 2.68 µM
T-47D breast
  GI50: 18.4 µM
  TGI: 38.2 µM
TK-10 renal
  GI50: 16.1 µM
  TGI: 29.6 µM
U251 CNS
  GI50: 2.42 µM
  TGI: 18.7 µM
UACC-257 melanoma
  GI50: 19.8 µM
  TGI: 34.3 µM
UACC-62 melanoma
  GI50: 15.5 µM
  TGI: 36.3 µM
UO-31 renal
  GI50: 1.77 µM
  TGI: 14.2 µM

Source: PubChem BioAssay (NCI)
